Consider 16 compounds from ChEMBL document CHEMBL4342426, “Structure-activity relationship of 4-azaindole-2-piperidine derivatives as agents against Trypanosoma cruzi” (Bioorg Med Chem Lett, 2020).

One data set is described as follows: cells. As to conditions: Homo sapiens, MRC-5 SV2, 72 h.
A short description of data set [1]: in vitro. As to conditions: mouse, peritoneal macrophages.
Description: (§1) Cytotoxicity against mouse peritoneal Macrophage cells assessed as reduction in cell viability incubated for 3 days by fluorimetry
The next data set has as its system Macrophage. Put plainly: cells. The conditions noted are these: Mus musculus, 72 h.
The next data set concerns Leishmania infantum. Put plainly: microbe, parasite or virus in culture. The conditions noted are these: for IC50: MHOM/MA(BE)/67/ITMAP263, 120 h; for IC90: MHOM/MA(BE)/67/ITMAP263, in Mus musculus, 120 h.
The nature of data set [2]: in vitro. As to conditions: human, MRC5 SV2 cells.
Description: Cytotoxicity against human MRC5 SV2 cells assessed as reduction in cell viability incubated for 3 days by fluorimetry
Another data set can be described thus: physchem. As to conditions: buffer, pH 7.4.
Data set [3] relates to Trypanosoma brucei rhodesiense. Kind of data set: microbe, parasite or virus in culture. The conditions noted are these: STIB900, 72 h.
Description: Antiprotozoal activity against Trypanosoma brucei rhodesiense STIB900 trypomastigotes incubated for 72 hrs by resazurin dye based fluorimetric analysis
A further data set concerns Trypanosoma cruzi. Kind of data set: microbe, parasite or virus in culture. As to conditions: Tulahuen CL2, MRC-5 SV2, 168 h.
Data set [4] is described as follows: in vitro. The conditions noted are these: PAMPA. A general note: The PAMPA barrier holds no transporters, so it reflects passive diffusion.
Description: Effective permeability of compound by PAMPA assay
Data set [5] in a line: in vitro. As to conditions: mouse, liver microsomes. On the technique in general: Liver microsomes are a subcellular fraction often used to study metabolism.
Description: Metabolic stability in mouse liver microsomes assessed as intrinsic clearance at 0.5 uM incubated for 30 mins by LC-MS/MS analysis
A short description of data set [6]: in vitro. The conditions noted are these: human, liver microsomes.
Description: Metabolic stability in human liver microsomes assessed as intrinsic clearance at 0.5 uM incubated for 30 mins by LC-MS/MS analysis
A further data set relates to Trypanosoma brucei. Kind of data set: microbe, parasite or virus in culture. As to conditions: Squib 427, 72 h.

Description for Leishmania infantum: Antileishmanial activity against amastigote stage of Leishmania infantum MHOM/MA(BE)/67/ITMAP263 infected in mouse peritoneal macrophage assessed as parasite growth inhibition incubated for 5 days by Giemsa staining based assay
Description for Macrophage: as §1
Description for Trypanosoma cruzi: Antitrypanosomal activity against Trypanosoma cruzi Tulahuen CL2 amastigotes infected in human MRC5 SV2 cells incubated for 7 days by chlorophenol red beta-D-galactopyranoside substrate based spectrophotometric assay
Description for physchem: Lipophilicity, logD of compound at pH 7.4 by HPLC analysis

The IC50 is the concentration that inhibits the measured activity by half. A low value points to inhibition by little substance. The term IC90 denotes the point of the concentration-response curve where the effect stands at 90%. Higher therefore signals a need for much substance. As usually defined, the logD is lipophilicity at a set pH, counting ionised and neutral species. Read a high logD as a more lipophilic compound. Broadly, the Papp is the rate of passage across a membrane or cell layer, normalised by area and donor concentration. Read a low Papp as poor permeation. By CLint scaled is commonly meant the capacity of the preparation to metabolise the compound, expressed as a volume cleared per time. As usually defined, the microsomal CLint is the rate of metabolic loss divided by the concentration. A low value points to greater metabolic stability. Consider `O=C(c1ccccn1)N1CCCC(c2cc3ncccc3[nH]2)C1` (stereo not drawn), for which the IC50 (in “cells”; in the data set with Macrophage; in the data set on Leishmania infantum; in data set [3]; in the data set on Trypanosoma cruzi; in the data set on Trypanosoma brucei) was 64 µM in each case. For the same compound, the IC90 at 72 h in the data set “in vitro [1]” and in the data set “in vitro [2]” was 64 µM throughout. Further, the IC90 (in the data set on Leishmania infantum; in [3]; with Trypanosoma cruzi; in the data set on Trypanosoma brucei) was 64 µM each time. The compound also had a logD in “physchem” of 1.85. In “in vitro [4]”, this compound registered a Papp of 2.33 ×10⁻⁶ cm/s. In addition, the CLint scaled at 0.5 h, 0.5 µM is 523 mL/min/kg in the data set “in vitro [5]” and below 25 mL/min/kg in “in vitro [6]”. Also, the microsomal CLint at 0.5 h, 0.5 µM in “in vitro [5]” is 164 µL/min/mg; in “in vitro [6]” it was below 23 µL/min/mg.
For the compound `O=C(NCCc1nc2ccccc2[nH]1)c1ccccc1`, the IC50 (in “cells”; in the data set on Macrophage; in the data set on Leishmania infantum; in data set [3]; in the data set on Trypanosoma cruzi; in the data set with Trypanosoma brucei) was 64 µM in each case. In addition, the IC90 at 72 h in “in vitro [1]” and in the data set “in vitro [2]” was 64 µM each time. For the same compound, the IC90 (in the data set with Leishmania infantum; in data set [3]; in the data set with Trypanosoma cruzi; in the data set on Trypanosoma brucei) was 64 µM throughout.
On to `O=S(=O)(c1ccccc1)N1CC=C(c2cc3ncccc3[nH]2)CC1`, for which the IC50 came out at 64 µM in “cells”; 45.3 µM in the data set with Macrophage; 45.6 µM in the data set with Leishmania infantum; 64 µM in data set [3]; 64 µM in the data set on Trypanosoma cruzi; 64 µM in the data set on Trypanosoma brucei. Besides, the IC90 at 72 h in the data set “in vitro [1]” was found to be 59.7 µM; in “in vitro [2]” it was 64 µM. Further, the IC90 in the data set with Leishmania infantum was 60.5 µM; in data set [3], 64 µM; in the data set with Trypanosoma cruzi, 64 µM; in the data set with Trypanosoma brucei it was 64 µM.
In the case of `CC(C)(C)OC(=O)N1CCCC(O)(c2cc3ncccc3[nH]2)C1` (stereo not drawn), the half-inhibitory concentration (IC50) (in “cells”; in the data set with Macrophage; in the data set with Leishmania infantum; in [3]; with Trypanosoma cruzi; in the data set with Trypanosoma brucei) was 64 µM each time. Also, the IC90 at 72 h in “in vitro [1]” and in “in vitro [2]” was 64 µM throughout. For the same compound, the IC90 (in the data set with Leishmania infantum; in data set [3]; in the data set on Trypanosoma cruzi; in the data set on Trypanosoma brucei) was 64 µM each time.
Consider `CCN(CCc1nc2ncccc2[nH]1)C(=O)c1ccccc1`, for which the IC50 (in the data set “cells”; in the data set with Macrophage; with Leishmania infantum; in data set [3]; in the data set with Trypanosoma cruzi; in the data set on Trypanosoma brucei) was 64 µM each time. Besides, the IC90 at 72 h in the data set “in vitro [1]” and in “in vitro [2]” was 64 µM each time. The IC90 (in the data set on Leishmania infantum; in data set [3]; in the data set with Trypanosoma cruzi; in the data set with Trypanosoma brucei) was 64 µM each time. Moreover, the logD in “physchem” came to 1.63. In “in vitro [4]”, the Papp is 3.35 to 3.44 ×10⁻⁶ cm/s.
With `N#Cc1cnc2cc(C3CCCN(C(=O)c4cc(C(F)(F)F)no4)C3)[nH]c2c1` (stereo not drawn), the IC50 in “cells” turned out to be 64 µM; with Macrophage it was 45.3 µM; with Leishmania infantum it was 39.2 µM; in [3] it was 64 µM; in the data set on Trypanosoma cruzi it was 64 µM; in the data set on Trypanosoma brucei, 64 µM. Moreover, the values for the IC90 at 72 h in “in vitro [1]” and in “in vitro [2]” were 59.7 µM and 64 µM, respectively. For the same compound, the IC90 in the data set on Leishmania infantum was 59 µM; in data set [3], 64 µM; in the data set on Trypanosoma cruzi, 64 µM; with Trypanosoma brucei, 64 µM. Moreover, the logD in the data set “physchem” amounted to 3.5. Moreover, in “in vitro [4]”, the Papp stood at 5.51 ×10⁻⁶ cm/s. Further, the CLint scaled at 0.5 h, 0.5 µM fell in the range of 310 to 555 mL/min/kg in the data set “in vitro [5]” and 50.5 to 54.2 mL/min/kg in the data set “in vitro [6]”. The results for the microsomal CLint at 0.5 h, 0.5 µM in the data set “in vitro [5]” and in “in vitro [6]” were 68.3 to 114 µL/min/mg and 32.9 µL/min/mg, respectively.
Take `CC(=O)N1C=C(c2cc3ncccc3[nH]2)CCC1`: the IC50 (in the data set “cells”; in the data set on Macrophage; in the data set on Leishmania infantum; in [3]; in the data set with Trypanosoma cruzi; in the data set on Trypanosoma brucei) was 64 µM each time. Besides, the IC90 at 72 h in “in vitro [1]” and in the data set “in vitro [2]” was 64 µM in each case. Moreover, the IC90 (in the data set with Leishmania infantum; in data set [3]; in the data set on Trypanosoma cruzi; with Trypanosoma brucei) was 64 µM throughout.
With `CC(C)c1cc(C(=O)N2CCC(O)(c3cc4ncccc4[nH]3)CC2)on1`, the IC50 in the data set “cells” was 64 µM; in the data set with Macrophage it was 64 µM; with Leishmania infantum it was 64 µM; in data set [3] it was 64 µM; with Trypanosoma cruzi, 45.9 µM; in the data set on Trypanosoma brucei it was 64 µM. The IC90 at 72 h in “in vitro [1]” and in “in vitro [2]” was 64 µM throughout. Moreover, the IC90 (with Leishmania infantum; in data set [3]; in the data set on Trypanosoma cruzi; in the data set with Trypanosoma brucei) was 64 µM throughout. This compound also showed a logD in “physchem” of 2.46. Moreover, the CLint scaled at 0.5 h, 0.5 µM is 4900 mL/min/kg in the data set “in vitro [5]” and 40.7 mL/min/kg in the data set “in vitro [6]”. For the same compound, the values for the microsomal CLint at 0.5 h, 0.5 µM in “in vitro [5]” and in the data set “in vitro [6]” were 980 µL/min/mg and 24.1 µL/min/mg, respectively.
In the case of `CCCC(=O)N1CCCC(O)(c2cc3ncccc3[nH]2)C1` (stereo not drawn), the IC50 (in the data set “cells”; in the data set with Macrophage; in the data set with Leishmania infantum; in data set [3]; in the data set on Trypanosoma cruzi; in the data set with Trypanosoma brucei) was 64 µM in each case. Moreover, the IC90 at 72 h in “in vitro [1]” and in “in vitro [2]” was 64 µM each time. Moreover, the IC90 (in the data set with Leishmania infantum; in data set [3]; in the data set on Trypanosoma cruzi; in the data set with Trypanosoma brucei) was 64 µM throughout.
`OC1(c2cc3ncccc3[nH]2)CCN(Cc2ccccc2)CC1`: the IC50 (in “cells”; with Macrophage; in the data set on Leishmania infantum; in data set [3]; in the data set with Trypanosoma cruzi; in the data set with Trypanosoma brucei) was 64 µM each time. Also, the IC90 at 72 h in “in vitro [1]” and in “in vitro [2]” was 64 µM in each case. Besides, the IC90 (in the data set on Leishmania infantum; in data set [3]; in the data set on Trypanosoma cruzi; with Trypanosoma brucei) was 64 µM in each case. In the data set “physchem”, the logD was 2.13. Also, the CLint scaled at 0.5 h, 0.5 µM in “in vitro [5]” is 1920 mL/min/kg; in the data set “in vitro [6]”, 143 mL/min/kg. The figures for the microsomal CLint at 0.5 h, 0.5 µM in the data set “in vitro [5]” and in “in vitro [6]” were 434 µL/min/mg and 94.4 µL/min/mg, respectively.
Consider `O=C(c1ccccc1)N1CCC(O)(c2cc3ncccc3[nH]2)CC1`, for which the IC50 (in “cells”; in the data set on Macrophage; with Leishmania infantum; in data set [3]; in the data set with Trypanosoma cruzi; in the data set with Trypanosoma brucei) was 64 µM each time. The IC90 at 72 h in “in vitro [1]” and in “in vitro [2]” was 64 µM in each case. Further, the IC90 (in the data set with Leishmania infantum; in [3]; with Trypanosoma cruzi; in the data set on Trypanosoma brucei) was 64 µM throughout. The logD in “physchem” was 2.13. Moreover, the CLint scaled at 0.5 h, 0.5 µM was 956 mL/min/kg in “in vitro [5]” and 52 mL/min/kg in “in vitro [6]”. Besides, the results for the microsomal CLint at 0.5 h, 0.5 µM in “in vitro [5]” and in “in vitro [6]” were 193 µL/min/mg and 31 µL/min/mg, respectively.
With `O=C(c1cncnc1)N1CCCC(c2cc3ncccc3[nH]2)C1` (stereo not drawn), the IC50 (in “cells”; with Macrophage; with Leishmania infantum; in data set [3]; in the data set with Trypanosoma cruzi; with Trypanosoma brucei) was 64 µM in each case. The IC90 at 72 h in the data set “in vitro [1]” and in the data set “in vitro [2]” was 64 µM in each case. Moreover, the IC90 (in the data set on Leishmania infantum; in [3]; in the data set on Trypanosoma cruzi; in the data set on Trypanosoma brucei) was 64 µM in each case. The same compound registered a logD in “physchem” of 1.24. The same compound yielded a CLint scaled at 0.5 h, 0.5 µM in the data set “in vitro [6]” below 31.3 mL/min/kg. This compound also registered a microsomal CLint at 0.5 h, 0.5 µM in “in vitro [6]” below 23 µL/min/mg.
Turning to `O=C(CCc1nc2ncccc2[nH]1)Nc1ccccc1`, the IC50 (in the data set “cells”; in the data set on Macrophage; with Leishmania infantum; in data set [3]; in the data set on Trypanosoma cruzi; in the data set with Trypanosoma brucei) was 64 µM each time. In addition, the IC90 at 72 h in “in vitro [1]” and in the data set “in vitro [2]” was 64 µM in each case. The IC90 (in the data set with Leishmania infantum; in [3]; in the data set with Trypanosoma cruzi; with Trypanosoma brucei) was 64 µM each time. In the data set “physchem”, the logD was 1.75. This compound registered a Papp in “in vitro [4]” of 2.72 ×10⁻⁶ cm/s.
In the data set with Trypanosoma cruzi, `O=C(Cn1ccnc1[N+](=O)[O-])NCc1ccccc1` [BENZNIDAZOLE] had an IC50 of 2 to 5 µM.
Broadly, the CC50 is the concentration at which the toxic effect on the cells reaches its halfway point. Regarding `CC(=O)O[C@H]1C(=O)[C@@]2(C)[C@H]([C@H](OC(=O)c3ccccc3)[C@]3(O)C[C@H](OC(=O)[C@H](O)[C@@H](NC(=O)c4ccccc4)c4ccccc4)C(C)=C1C3(C)C)[C@]1(OC(C)=O)CO[C@@H]1C[C@@H]2O` [PACLITAXEL], in “in vitro [2]”, the CC50 at 72 h was below 0.01 µM.
Regarding `CC[C@]1(O)C[C@@H]2CN(CCc3c([nH]c4ccccc34)[C@@](C(=O)OC)(c3cc4c(cc3OC)N(C)[C@H]3[C@@](O)(C(=O)OC)[C@H](OC(C)=O)[C@]5(CC)C=CCN6CC[C@]43[C@@H]65)C2)C1` [VINBLASTINE], in “in vitro [2]”, the CC50 at 72 h was below 0.01 µM.
